# Results as given in PMC11062899, “De novo development of small cyclic peptides that are orally bioavailable” (Nature Chemical Biology, 2023).
# Several values for one entry are separate records, joined by “and”; a condition that tells them apart may be missing. Equal entries are not always repeated.
# Assays:
# porcine pancreatin = assay: Peptide stability in simulated intestinal fluid (SIF); assay type: in vitro ADME; settings: after 8 h vs 0 h (TIC); for SIF stability, Residual peptide Average: average of R1-R3
# Method in brief: (§1)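 Peptide from a 1 mM DMSO stock was added to fluid pre-warmed at 37 °C. SGF was pH 1.2 NaCl with porcine pepsin (0.32 g per 100 ml), and SIF was pH 6.8 potassium phosphate with porcine pancreatin (1 g per 100 ml). Supernatant peptide was quantified by LC–MS, with residual expressed as T1/T0.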
# [1] = as above; assay type: in vitro ADME, porcine; settings: simulated gi fluid; 8 h, 37 °C, pH 6.8; read-out: Proteolytic stability: SIF (8 h) % remaining
# Method in brief: as §1
# [2] = Passive artificial membrane permeability (PAMPA); settings: for PAMPA permeability: % permeability: 50 μM, 12–18 h, acceptor concentration relative to equilibrium; for Papp at 50 μM / Permeability% Average / Permeability% R1 / Permeability% R3: PAMPA; for Papp at 50 μM: pH 7.4; for Permeability% Average: average of R1-R3; for Permeability% R1: replicate R1; for Permeability% R1 / Permeability% R3: TIC of top well sample relative to sample at theoretical equilibrium; for Permeability% R3: replicate R3
# [3] = Metabolic stability in rat liver microsomes (RLMs); settings: rat, microsomes
# rat α-thrombin = target: T1, rat α-thrombin (Rattus norvegicus, UniProt P18292); assay: Protease inhibition, Ki for rat α-thrombin (fluorogenic substrate Z-Gly-Gly-Arg-AMC); assay type: biochemical; settings: replicates R1-R3
# T1 construct: rat α-thrombin (Molecular Innovations) were used at final concentrations of 2 nM and 3 nM; purchased Molecular Innovations
# Method in brief: (§2)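 Inhibition was measured as AMC fluorescence from 50 μM substrate, monitored for 30 min at 25 °C, relative to a peptide-free control. Human and rat enzymes were present at 2 nM and 3 nM final, respectively, in 50 mM Tris-HCl pH 7.4, 150 mM NaCl, 10 mM MgCl2, 1 mM CaCl2. Ki derives from fitted IC50 via Cheng–Prusoff.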
# human α-thrombin = human α-thrombin (Homo sapiens, UniProt P00734); assay: Protease inhibition, Ki for human α-thrombin (fluorogenic substrate Z-Gly-Gly-Arg-AMC); assay type: biochemical; settings: replicates R1-R3
# Method in brief: as §2
# porcine pepsin = target: T2, porcine pepsin (Sus scrofa, UniProt P00791); assay: Peptide stability in simulated gastric fluid (SGF); assay type: in vitro ADME; settings: for SGF stability, Residual peptide Average / SGF stability, Residual peptide: after 8 h vs 0 h (TIC); for SGF stability, Residual peptide Average: average of R1-R3; for SGF stability, Residual peptide: single replicates R1-R3; for remaining at 8 h: simulated gi fluid, 37 °C, pH 1.2, read-out: Proteolytic stability: SGF (8 h) % remaining
# T2 construct: 0.32 g of porcine pepsin (Sigma-Aldrich, P7125) was dissolved under gentle agitation; purchased Sigma-Aldrich P7125
# Method in brief: as §1
# [4] = CL (ul/min/mg protein) R1, RLM CL, replicate R1
# [5] = CL (ul/min/mg protein) R2, RLM CL, replicate R2
# [6] = CL (ul/min/mg protein) R3, RLM CL, replicate R3
# [7] = Half Life (min) R2, RLM metabolic stability, replicate R2, 0-60 min
# [8] = Half Life (min) R3, RLM metabolic stability, replicate R3, 0-60 min
# [9] = Metabolic stability: RLM CL (ul/min/mg), RLMs, mean and SD, three measurements
# [10] = peptide 1.33E+02 uM, slope of proteolytic substrate cleavage over time
# T2 sequence (P00791 60-385): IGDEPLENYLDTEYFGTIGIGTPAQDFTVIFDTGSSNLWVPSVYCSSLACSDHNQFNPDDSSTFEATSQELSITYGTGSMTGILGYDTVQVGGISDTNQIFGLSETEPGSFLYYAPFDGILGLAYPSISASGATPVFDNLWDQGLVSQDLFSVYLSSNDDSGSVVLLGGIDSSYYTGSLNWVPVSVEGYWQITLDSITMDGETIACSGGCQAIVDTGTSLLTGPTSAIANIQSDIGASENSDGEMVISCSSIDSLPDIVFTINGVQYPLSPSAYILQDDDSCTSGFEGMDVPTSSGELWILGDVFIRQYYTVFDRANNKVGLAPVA
smiles,measurement,setting,value
CC(C)[C@@H]1NC(=O)[C@@H](NC(=O)c2ccc(Cl)s2)CNC(=O)CCSCc2cccc(n2)CSCCNC1=O [compound 19],"SIF stability, Residual peptide Average",porcine pancreatin,62.00
same,"SIF stability, Residual peptide",porcine pancreatin; single replicates R1-R3,68.18 and 45.06 and 72.76
same,remaining at 8 h,[1],62 ± 15%
same,PAMPA permeability: % permeability,[2],5.7 ± 1.3%
same,Papp at 50 μM,[2],0.38 ×10⁻⁶ cm/s
same,Permeability% Average,[2],5.7%
same,Permeability% R1,[2],7.10%
same,Permeability% R3,[2],4.56%
same,microsomal CLint,[3]; [4],13.1 µL/min/mg
same,microsomal CLint,[3]; [5],42.3 µL/min/mg
same,microsomal CLint,[3]; [6],68.3 µL/min/mg
same,half-life,[3]; [7],32.8 min
same,half-life,[3]; [8],20.3 min
same,half-life,"[3]; Metabolic stability: Half life T1/2 (min), RLMs, mean and SD, three measurements",53 ± 38 min
same,microsomal CLint,[3]; [9],41 ± 23 µL/min/mg
same,"Rat alpha thrombin inhibition, slope normalized to DMSO",rat α-thrombin; [10],43.4 and 70.6
same,"Rat alpha thrombin inhibition, slope normalized to DMSO",rat α-thrombin; peptide 1.67E+01 uM,56.7 and 58.6
same,"Rat alpha thrombin inhibition, slope normalized to DMSO",rat α-thrombin; peptide 2.08E+00 uM,84.9 and 85.4 and 90.4
same,"Rat alpha thrombin inhibition, slope normalized to DMSO",rat α-thrombin; peptide 3.33E+01 uM,53.0 and 50.7 and 58.4
same,"Rat alpha thrombin inhibition, slope normalized to DMSO",rat α-thrombin; peptide 4.17E+00 uM,73.8 and 75.0 and 69.4
same,"Rat alpha thrombin inhibition, slope normalized to DMSO",rat α-thrombin; peptide 6.67E+01 uM,39.7 and 48.9 and 63.6
same,"Rat alpha thrombin inhibition, slope normalized to DMSO",rat α-thrombin; peptide 8.33E+00 uM,59.4 and 61.3 and 72.8
same,"Human alpha thrombin inhibition, slope normalized to DMSO",human α-thrombin; peptide 1.02E-03 uM,98.0 and 91.0 and 96.2
same,"Human alpha thrombin inhibition, slope normalized to DMSO",human α-thrombin; peptide 1.04E+00 uM,90.3 and 89.1 and 92.4
same,"Human alpha thrombin inhibition, slope normalized to DMSO",human α-thrombin; peptide 1.27E-04 uM,96.9 and 100.1 and 95.3
same,"Human alpha thrombin inhibition, slope normalized to DMSO",human α-thrombin; peptide 1.30E-01 uM,95.8 and 125.1 and 96.3
same,"Human alpha thrombin inhibition, slope normalized to DMSO",human α-thrombin; [10],74.4 and 73.1 and 82.6
same,"Human alpha thrombin inhibition, slope normalized to DMSO",human α-thrombin; peptide 1.63E-02 uM,97.3 and 90.7 and 96.5
same,"Human alpha thrombin inhibition, slope normalized to DMSO",human α-thrombin; peptide 1.67E+01 uM,83.1 and 82.1 and 94.4
same,"Human alpha thrombin inhibition, slope normalized to DMSO",human α-thrombin; peptide 2.03E-03 uM,96.1 and 96.3 and 98.7
same,"Human alpha thrombin inhibition, slope normalized to DMSO",human α-thrombin; peptide 2.08E+00 uM,89.8 and 84.9 and 90.4
same,"Human alpha thrombin inhibition, slope normalized to DMSO",human α-thrombin; peptide 2.54E-04 uM,98.3 and 94.9 and 77.9
same,"Human alpha thrombin inhibition, slope normalized to DMSO",human α-thrombin; peptide 2.60E-01 uM,93.9 and 90.6 and 94.3
same,"Human alpha thrombin inhibition, slope normalized to DMSO",human α-thrombin; peptide 3.18E-05 uM,98.5 and 92.5 and 100.2
same,"Human alpha thrombin inhibition, slope normalized to DMSO",human α-thrombin; peptide 3.26E-02 uM,95.9 and 95.8 and 99.6
same,"Human alpha thrombin inhibition, slope normalized to DMSO",human α-thrombin; peptide 3.33E+01 uM,78.3 and 75.1 and 78.9
same,"Human alpha thrombin inhibition, slope normalized to DMSO",human α-thrombin; peptide 4.07E-03 uM,94.7 and 93.4 and 96.1
same,"Human alpha thrombin inhibition, slope normalized to DMSO",human α-thrombin; peptide 4.17E+00 uM,83.3 and 83.5 and 89.8
same,"Human alpha thrombin inhibition, slope normalized to DMSO",human α-thrombin; peptide 5.09E-04 uM,93.5 and 91.5 and 93.7
same,"Human alpha thrombin inhibition, slope normalized to DMSO",human α-thrombin; peptide 5.21E-01 uM,92.8 and 90.2 and 92.1
same,"Human alpha thrombin inhibition, slope normalized to DMSO",human α-thrombin; peptide 6.36E-05 uM,97.2 and 93.5 and 90.4
same,"Human alpha thrombin inhibition, slope normalized to DMSO",human α-thrombin; peptide 6.51E-02 uM,99.6 and 94.9 and 95.6
same,"Human alpha thrombin inhibition, slope normalized to DMSO",human α-thrombin; peptide 6.67E+01 uM,77.2 and 75.7 and 77.5
same,"Human alpha thrombin inhibition, slope normalized to DMSO",human α-thrombin; peptide 8.14E-03 uM,97.4 and 94.0 and 99.7
same,"Human alpha thrombin inhibition, slope normalized to DMSO",human α-thrombin; peptide 8.33E+00 uM,84.1 and 83.5 and 81.2
same,"SGF stability, Residual peptide Average",porcine pepsin,94.69
same,"SGF stability, Residual peptide",porcine pepsin,92.56 and 99.47 and 92.05
same,remaining at 8 h,porcine pepsin,95 ± 4%
NC(=O)NCCC[C@@H]1NC(=O)[C@@H](NC(=O)c2ccc(Cl)s2)CNC(=O)CCSCc2cccc(n2)CSCCNC1=O [compound 20],"SIF stability, Residual peptide Average",porcine pancreatin,92.33
same,remaining at 8 h,[1],93 ± 13%
same,PAMPA permeability: % permeability,[2],0.99 ± 0.28%
same,Papp at 50 μM,[2],0.0646 ×10⁻⁶ cm/s
same,Permeability% Average,[2],1.0%
same,Permeability% R1,[2],1.25%
same,Permeability% R3,[2],1.03%
same,microsomal CLint,[3]; [4],29.5 µL/min/mg
same,microsomal CLint,[3]; [5],24 µL/min/mg
same,microsomal CLint,[3]; [6],26.2 µL/min/mg
same,half-life,"[3]; Half Life (min) R1, RLM metabolic stability, replicate R1, 0-60 min",46.9 min
same,half-life,[3]; [7],57.7 min
same,half-life,[3]; [8],53 min
same,microsomal CLint,[3]; [9],27 ± 2 µL/min/mg
same,"Rat alpha thrombin inhibition, slope normalized to DMSO",rat α-thrombin; [10],12.2 and 19.4 and 24.3
same,"Rat alpha thrombin inhibition, slope normalized to DMSO",rat α-thrombin; peptide 1.67E+01 uM,41.8 and 45.6 and 42.9
same,"Rat alpha thrombin inhibition, slope normalized to DMSO",rat α-thrombin; peptide 2.08E+00 uM,71.5 and 79.0 and 60.4
same,"Rat alpha thrombin inhibition, slope normalized to DMSO",rat α-thrombin; peptide 3.33E+01 uM,25.4 and 28.0 and 27.8
same,"Rat alpha thrombin inhibition, slope normalized to DMSO",rat α-thrombin; peptide 4.17E+00 uM,66.5 and 70.9 and 68.3
same,"Rat alpha thrombin inhibition, slope normalized to DMSO",rat α-thrombin; peptide 6.67E+01 uM,16.3 and 21.9 and 8.4
same,"Rat alpha thrombin inhibition, slope normalized to DMSO",rat α-thrombin; peptide 8.33E+00 uM,56.5 and 61.2 and 59.0
same,"Human alpha thrombin inhibition, slope normalized to DMSO",human α-thrombin; peptide 1.02E-03 uM,98.9 and 95.1 and 89.8
same,"Human alpha thrombin inhibition, slope normalized to DMSO",human α-thrombin; peptide 1.04E+00 uM,90.6 and 90.5 and 80.1
same,"Human alpha thrombin inhibition, slope normalized to DMSO",human α-thrombin; peptide 1.27E-04 uM,100.0 and 98.9 and 93.2
same,"Human alpha thrombin inhibition, slope normalized to DMSO",human α-thrombin; peptide 1.30E-01 uM,69.5 and 98.5 and 88.7
same,"Human alpha thrombin inhibition, slope normalized to DMSO",human α-thrombin; [10],42.6 and 48.7 and 48.9
same,"Human alpha thrombin inhibition, slope normalized to DMSO",human α-thrombin; peptide 1.63E-02 uM,88.4 and 95.2 and 91.8
same,"Human alpha thrombin inhibition, slope normalized to DMSO",human α-thrombin; peptide 1.67E+01 uM,73.5 and 78.5 and 58.5
same,"Human alpha thrombin inhibition, slope normalized to DMSO",human α-thrombin; peptide 2.03E-03 uM,99.2 and 96.7 and 91.4
same,"Human alpha thrombin inhibition, slope normalized to DMSO",human α-thrombin; peptide 2.08E+00 uM,75.3 and 92.4 and 77.6
same,"Human alpha thrombin inhibition, slope normalized to DMSO",human α-thrombin; peptide 2.54E-04 uM,99.2 and 99.7 and 92.0
same,"Human alpha thrombin inhibition, slope normalized to DMSO",human α-thrombin; peptide 2.60E-01 uM,120.3 and 99.5 and 85.9
same,"Human alpha thrombin inhibition, slope normalized to DMSO",human α-thrombin; peptide 3.18E-05 uM,87.6 and 101.9 and 93.6
same,"Human alpha thrombin inhibition, slope normalized to DMSO",human α-thrombin; peptide 3.26E-02 uM,82.7 and 95.9 and 92.3
same,"Human alpha thrombin inhibition, slope normalized to DMSO",human α-thrombin; peptide 3.33E+01 uM,52.1 and 61.8 and 43.1
same,"Human alpha thrombin inhibition, slope normalized to DMSO",human α-thrombin; peptide 4.07E-03 uM,96.4 and 99.1 and 90.2
same,"Human alpha thrombin inhibition, slope normalized to DMSO",human α-thrombin; peptide 4.17E+00 uM,69.9 and 89.4 and 83.9
same,"Human alpha thrombin inhibition, slope normalized to DMSO",human α-thrombin; peptide 5.09E-04 uM,96.6 and 98.5 and 95.0
same,"Human alpha thrombin inhibition, slope normalized to DMSO",human α-thrombin; peptide 5.21E-01 uM,80.4 and 93.9 and 89.5
same,"Human alpha thrombin inhibition, slope normalized to DMSO",human α-thrombin; peptide 6.36E-05 uM,91.9 and 97.1 and 90.0
same,"Human alpha thrombin inhibition, slope normalized to DMSO",human α-thrombin; peptide 6.51E-02 uM,80.1 and 98.2 and 90.6
same,"Human alpha thrombin inhibition, slope normalized to DMSO",human α-thrombin; peptide 6.67E+01 uM,54.5 and 43.3 and 24.5
same,"Human alpha thrombin inhibition, slope normalized to DMSO",human α-thrombin; peptide 8.14E-03 uM,89.1 and 102.0 and 83.1
same,"Human alpha thrombin inhibition, slope normalized to DMSO",human α-thrombin; peptide 8.33E+00 uM,94.4 and 79.6 and 74.6
same,"SGF stability, Residual peptide Average",porcine pepsin,96.69
same,"SGF stability, Residual peptide",porcine pepsin,100.68 and 91.38 and 98.01
same,remaining at 8 h,porcine pepsin,97 ± 5%
